In paper PMC12495412, “Coumarin/nitrogen-bearing heterocyclic hybrid-loaded electrospun PMMA/PVP nanofibrous scaffolds for accelerating topical wound healing rates: synthesis and in vitro bio-evaluation” (RSC Advances, 2025):
Values after ≈ are worked out from the molar mass of the structure shown. Values joined by “and” are separate entries in the source; they are usually repeats but may differ in a detail not shown here. Equal entries are not always repeated.

How the values were obtained:
[1] = test system: Wi-38 cells; test: MTT cytotoxicity assay, normal cells; format: cell-based; settings: WI-38, normal human lung fibroblast cells, 48 h
From the text: (§1) MTT assay: the normal cell line (Wi-38), colon cancer (Caco-2), lung cancer (A549), and breast cancer (MDA) cell lines were sourced from ATCC, USA. All different cell lines were cultivated and preserved in DMEM medium (SERANA, Germany), accompanied by 10% FBS (Gibco, USA) and 1% Pen/Strep solution (Lonza, USA). The newly prepared derivatives at various doses were considered for their anticancer activity and their safety on normal cells, applying MTT (3-[4, 5-dimethylthiazol]-2, 5-diphenyltetrazolium bromide) methods.[22] At first, all normal and cancer cell lines (1.0 ×10^4) were inoculated in 4 antiseptic 96-well tissue culture microplates and incubated for 24 h in a CO2 incubator. After cell attachments, the prepared derivatives were added to both normal Wi-38 cells at diverse concentrations of (6.25–200 μg mL^−1, 2-fold) and cancer cells at different concentrations of (3.125–100 μg mL^−1, 2-fold) in triplicate and incubated for another 48 h at 37 °C in a CO2 incubator with an adjusted concentration of 5%. After that, the treated cells were cleaned three times with PBS to remove debris and dead cells. Next, 200 μL of 0.5 mg mL^−1 MTT dye solution in PBS was mixed in each well, and the cells were further kept for 3 h at 37 °C in a 5% CO2 incubator. After that, MTT was removed and 200 μL of DMSO was added to each well. The optical density (OD) was recorded at 570 nm via a microplate reader (B.M.G. LabTech, Germany). Basic cells (untreated) were utilized as negative control cells, and 5-fluorouracil (5-FU) was included as a standard chemotherapy drug. The qualified cell viability (%) was evaluated as in equation (eqn (1)):1 Relative cell viability (%) = […] A1 is the OD of the examined derivative, A0 is the OD of the standard, and AU is the OD of the untreated cells.
(§2) Anticancer activity assay: the anticancer effect of each derivative was assessed by evaluating the half-maximal inhibitory concentration (IC50) value via the GraphPad Prism 7.0 software. However, SI (selective index) values of each derivative were estimated by splitting the IC50 value of healthy cells by the IC50 value of malignant cells, as previously reported.[23] The effects of the created derivatives on the morphology of MDA cells were evaluated at IC50 doses and captured by phase-contrast microscopy (Olympus, Germany) in comparison to untreated control cells.

[2] = test system: Caco-2 cells; test: MTT anticancer assay; format: cell-based
From the text: as §1, §2

[3] = test system: A549 cells; test: MTT anticancer assay; format: cell-based, human; settings: Homo sapiens, A549, lung carcinoma cells, 48 h
From the text: as §1, §2

[4] = test system: MDA cells; test: MTT anticancer assay; format: cell-based, human; settings: Homo sapiens, Breast carcinoma cell, 48 h
From the text: as §1, §2

[5] = test system: A549 cells; test: Wound healing scratch (anti-migration) assay; format: cell-based, human; settings: IC50 doses, 48 h
Protocol: To assess the anti-migration inhibition capability of newly synthesized derivatives, a wound healing technique was employed. A549 cells were planted in 12-well plates and kept alive at 37 °C until they achieved 80–90% fluency. The cell monolayers were smashed with a sterile tip and exposed to the prepared derivatives at IC50 doses. At 0 and 48 h of treatment, the wound closure area was captured and calculated by imaging analysis with the Cell-Sens software (Olympus, Japan).

[6] = test system: S. aureus; test: Agar-well diffusion of synthesized compounds; format: cell-based, Staphylococcus aureus ATCC 25923; settings: Staphylococcus aureus, 100 μL of 10 mg mL^−1 per well, 24 h, 37 °C
From the text: (§3) The antimicrobial activity of the prepared compounds was estimated through an agar-well diffusion method as adapted from the modified Kirby–Bauer protocol.[24] In this test, microbial pathogens were applied, including Staphylococcus aureus ATCC 25923 (S. aureus), Streptococcus mutans ATCC 25175 (S. mutans), Bacillus cereus ATCC 19637 (B. cereus), Bacillus aureus ATCC 25923 (B. aureus), Bacillus epidermidis ATCC 14990 (B. epidermidis), and Bacillus subtilis ATCC 11774 (B. subtilis) as Gram-positive bacteria, and Pseudomonas aeruginosa ATCC 27853 (P. aeruginosa), Klebsiella pneumonia ATCC 13883 (K. pneumonia), and Salmonella typhimurium ATCC 14028 (S. typhimurium), Salmonella pneumoniae ATCC 10031(S. pneumoniae), Escherichia coli ATCC 10536 (E. coli), and Salmonella paratyphi ATCC 9150 (S. paratyphi) as Gram-negative bacteria. Additionally, Candida albicans (ATCC 10231), Candida krusei ATCC 6258 (C. krusei), Candida glabrata ATCC 66032 (C. glabrata), andCandida parapsilosis ATCC 22019 (C. parapsilosis) were applied as models of unicellular fungi. The pre-inoculation cultures of the pathogens were prepared on Muller–Hinton broth and cultivated for 24 h at 37 °C. The agar-well test was prepared on Muller–Hinton agar with 100 μL of each pathogen pre-culture (0.5 McFarland conc.) and uniformly distributed on the plate surface. […]

[7] = test system: S. mutans; test: Agar-well diffusion of synthesized compounds; format: cell-based, Streptococcus mutans ATCC 25175; settings: Streptococcus mutans, 100 μL of 10 mg mL^−1 per well, 24 h, 37 °C
From the text: (§4) The antimicrobial activity of the prepared compounds was estimated through an agar-well diffusion method as adapted from the modified Kirby–Bauer protocol.[24] In this test, microbial pathogens were applied, including Staphylococcus aureus ATCC 25923 (S. aureus), Streptococcus mutans ATCC 25175 (S. mutans), Bacillus cereus ATCC 19637 (B. cereus), Bacillus aureus ATCC 25923 (B. aureus), Bacillus epidermidis ATCC 14990 (B. epidermidis), and Bacillus subtilis ATCC 11774 (B. subtilis) as Gram-positive bacteria, and Pseudomonas aeruginosa ATCC 27853 (P. aeruginosa), Klebsiella pneumonia ATCC 13883 (K. pneumonia), and Salmonella typhimurium ATCC 14028 (S. typhimurium), Salmonella pneumoniae ATCC 10031(S. pneumoniae), Escherichia coli ATCC 10536 (E. coli), and Salmonella paratyphi ATCC 9150 (S. paratyphi) as Gram-negative bacteria. Additionally, Candida albicans (ATCC 10231), Candida krusei ATCC 6258 (C. krusei), Candida glabrata ATCC 66032 (C. glabrata), andCandida parapsilosis ATCC 22019 (C. parapsilosis) were applied as models of unicellular fungi. The pre-inoculation cultures of the pathogens were prepared on Muller–Hinton broth and cultivated for 24 h at 37 °C. The agar-well test was prepared on Muller–Hinton agar with 100 μL of each pathogen pre-culture (0.5 McFarland conc.) and uniformly distributed on the plate surface. Under aseptic conditions, six wells were created on the agar surface using a sterile corkborer (9 mm). To each well, 100 μL of the prepared compound (10 mg mL^−1) was separately inserted into each plate. All plates were incubated for 24 h at 37 °C; the established inhibition zones (Halo-zones) surrounding the wells indicated positive antimicrobial activity and were stated as the radius of the inhibition zone (mm).

[8] = test system: S. typhimurium; test: Agar-well diffusion of synthesized compounds; format: cell-based, Salmonella typhimurium ATCC 14028; settings: Salmonella enterica, 100 μL of 10 mg mL^−1 per well, 24 h, 37 °C
From the text: as §3

[9] = test system: all applied pathogens; test: Agar-well diffusion of synthesized compounds, whole panel; format: cell-based
From the text: as §4

## Cc1ccc(-c2nnc(Nc3ccc(NC(=O)c4cc5ccccc5oc4=O)cc3)c3ccccc23)cc1 [Compound C, 2-oxo-N-(4-((4-(p-tolyl)phthalazin-1-yl)amino)phenyl)-2H-chromene-3-carboxamide]
[1]
  IC50: 137 ± 11.7 µg/mL (≈ 275 µM)
[2]; Homo sapiens, Caco-2, colon carcinoma cells, MTT, 48 h
  IC50: 7.11 ± 1.68 µg/mL (≈ 14.3 µM)
[2]; IC50 Wi-38 / IC50 Caco-2
  SI Caco-2: 19.25 ± 1.36
[3]
  IC50: 12.2 ± 1.36 µg/mL (≈ 24.4 µM)
[4]
  IC50: 6.06 ± 0.81 µg/mL (≈ 12.2 µM)
[5]
  Migration inhibition: 74.45% and 79.09%
[6]
  zone of inhibition at 10 mg/mL: ~19.5 mm
[7]
  zone of inhibition at 10 mg/mL: ~17.2 mm
[8]
  zone of inhibition at 10 mg/mL: ~15.5 mm
[9]
  Antimicrobial activity: wide-spectrum antibacterial activity
